Experimental data taken from article PMC9926489, “Chemical Optimization of Selective Pseudomonas aeruginosa LasB Elastase Inhibitors and Their Impact on LasB-Mediated Activation of IL-1β in Cellular and Animal Infection Models” (ACS Infectious Diseases, 2023).
pIC50, pKi: −log10 of the molar value.

How the values were obtained:
[1] = Thermodynamic solubility in PBS (pH 7.4); assay type: physicochemical; settings: aqueous buffer, thermodynamic from solid
[2] = Cytotoxicity screening (MTS), HepG2; assay type: cell-based; settings: human, HepG2 cells
Protocol: (§1) Bronchial smooth muscle cells (BSMC, Lonza CC-2576), small airway epithelial cells (SAEC, Lonza CC-2547), or HepG2 cells (ATCC HB-8065) were seeded in 96-well plates at a density of 25,000 per well. Culture of these cells throughout the protocol utilized incubation at 37 °C, 5% CO2 in a humidified atmosphere, with BSMC and SAEC cells cultured in cell-specific media (Lonza) and HepG2 cells cultured in RPMI 1640 medium containing Glutamax (Gibco) and 10% fetal bovine serum. Plates containing BSMC cells were collagen coated to assist with cell adhesion. Following an overnight settling period, media was replaced with fresh media, with, or without, compound. Compound concentrations tested were 1, 3, 10, 30, and 100 μM, in duplicate. The cells were incubated with compound for 24 h. Control (1% DMSO) and positive standards terfenadine- and salmeterol-treated groups were included for both cell lines. […] The reaction was stopped with 12.5 μL of 10% SDS, plates briefly shaken, and absorbance (490 nm) read using a Spectramax M5e plate reader (Molecular Devices). Percentages of viable cells were calculated as: (test sample Abs 490 nM-mean blank Abs 490 nm)/(mean control Abs 490 nM-mean blank Abs 490 nm) × 100.

[3] = Cytotoxicity screening (MTS), SAEC; assay type: cell-based; settings: human, small airway epithelial cells (SAEC)
Protocol: as §1

[4] = biological target: T1, LasB Q102R, S241G, D244N, K282N, R471S (Pseudomonas aeruginosa, UniProt P14756, D244N/K282N/R471S/S241G); test: LasB variant inhibition, culture supernatant: five substitutions; assay type: biochemical, P. aeruginosa
T1 construct: Most changes were identified in the mature peptide, however some occurred in the propeptide domain; endogenous in cells; host or cells: P. aeruginosa clinical CF isolate, culture supernatant
T1 sequence (P14756 198-498, looked up, stated change not applied): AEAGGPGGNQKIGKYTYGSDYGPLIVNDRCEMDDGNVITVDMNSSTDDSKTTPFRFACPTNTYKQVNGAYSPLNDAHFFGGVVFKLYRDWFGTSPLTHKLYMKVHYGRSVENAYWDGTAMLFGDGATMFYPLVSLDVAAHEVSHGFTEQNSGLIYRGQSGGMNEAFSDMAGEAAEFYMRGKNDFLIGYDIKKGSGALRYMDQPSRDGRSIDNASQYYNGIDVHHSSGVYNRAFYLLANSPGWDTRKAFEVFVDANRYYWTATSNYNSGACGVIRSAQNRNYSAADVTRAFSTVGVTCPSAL
Description: (§2) Compounds 12 and 16 were discovered as a result of optimizing potency against the LasB protein expressed from the wild-type (WT) reference strain P. aeruginosa PAO1. To understand the relative prevalence of the WT LasB protein versus other variants in clinical respiratory P. aeruginosa strains, the full-length lasB gene was amplified by PCR from 255 clinical isolates (obtained from CF sputum samples). […] Most changes were identified in the mature peptide, however some occurred in the propeptide domain, which could affect LasB processing (marked in italics in Table 4).
(§3) LasB inhibition assays were performed using purified LasB enzyme (1 ng/well) for compound screening or using culture supernatants (prepared as described in the ECR assay) for testing LasB variants. Hydrolysis of the fluorogenic peptide substrate 2-aminobenzoyl-Ala-Gly-Leu-Ala-4-nitrobenzylamide (Abz-AGLA-Nba; Peptide International) in 50 mM Tris-HCl (pH 7.4), supplemented with 2.5 mM CaCl2 was followed using an Envision microplate reader (PerkinElmer) at 315 nm excitation and 430 nm emission. […] IC50 values were determined from Hill plots using Dotmatics Studies ELN software. For the mechanism of inhibition studies, hydrolysis rates were measured in the presence of variable concentrations of substrate and inhibitor, and the inhibition constant (Ki) was determined using Dixon plot analysis.[31]

[5] = biological target: T2, LasB Q71L (Pseudomonas aeruginosa, UniProt P14756); test: LasB variant inhibition, culture supernatant: Q71L; assay type: biochemical, P. aeruginosa
T2 construct: endogenous in cells; host or cells: P. aeruginosa clinical CF isolate, culture supernatant
T2 sequence (P14756 198-498, stated change not applied): as the sequence (P14756 198-498, looked up, stated change not applied) above
Description: as §2, §3

[6] = biological target: T3, purified LasB (Pseudomonas aeruginosa, UniProt P14756); test: Inhibition of LasB-mediated proteolysis of human serum IgG (SDS-PAGE); assay type: biochemical, P. aeruginosa; settings: for inhibition of generation of 37 kDa IgG degradation product by LasB: at 10 μM inhibitor
T3 construct: The mature LasB protein is a 33 kDa metalloprotease, which is secreted from P. aeruginosa; host or cells: P. aeruginosa PAO1 (native secretion, culture supernatant)
T3 sequence (P14756 198-498): as the sequence (P14756 198-498, looked up, stated change not applied) above
Protocol: To confirm if compounds 12 and 16 were able to inhibit this activity, human serum IgG was incubated with purified LasB in the presence of varying concentrations of inhibitors and the products analyzed by SDS-PAGE.
This protocol was adapted from Cathcart et al.[25] Briefly, 10 μg of IgG from human serum (Sigma) were incubated with 100 ng purified LasB in assay buffer (50 mM Tris-HCl pH 7.4, 2.5 mM CaCl2) for 4 h at 37 °C, with or without variable concentrations of inhibitor. Samples were then denatured and analyzed by 4–15% gradient SDS polyacrylamide gel electrophoresis (SDS-PAGE) and the gel stained using Coomassie blue. The IgG subunits are visualized as two bands at 28 kDa (light chain) and 54 kDa (heavy chain). Proteolysis by LasB results in the generation of a fragment of the heavy chain detected of approximately 37 kDa. Bands were quantified using ImageJ software, and IC50 values were determined using Prism software (GraphPad).

[7] = biological target: T3, purified LasB; test: Inhibition of LasB-mediated proteolysis of pro-IL-1β-derived peptide Sub115; assay type: biochemical, P. aeruginosa
Description: Previous studies have shown that LasB cleaves the N-terminal domain of pro-IL-1β, thereby generating a mature active form of IL-1β in a manner analogous to the normal host activation mechanism involving cleavage by caspases.[16] This activity can be followed spectrophotometrically via hydrolysis of an internally quenched fluorescent peptide Sub115 (McA-HDAPVRSLN-K-Dnp), which incorporates the LasB cleavage site from pro-IL-1β. To determine whether compounds 12 and 16 were able to inhibit this activity, Sub115 hydrolysis was measured in the presence of varying concentrations of substrate and inhibitors (Figure 2B). […] These values, although still submicromolar, were higher than those determined with the Abz-AGLA-Nba hydrolysis assay, perhaps due to the different ion composition of the respective assay buffers.
The peptide HDAPVRSLN, corresponding to amino acids 115–123 of the reference human pro-IL-1β sequence (UniProt: PO1584), was labeled on the N-terminus with Mca and on the C-terminus with Lys-Dnp (CPC Scientific) to generate an internally quenched fluorescent peptide (Sub115). […] The reaction was continuously monitored using a Victor multimode plate reader (PerkinElmer) with excitation at 355 nm and emission at 450 nm, and initial kinetic velocity was calculated. Inhibitory constants (Ki) were determined (two independent replicates) using a competitive inhibitor model.

COc1cc2sc(CNC(=O)C3(CC(=O)O)Cc4cc(F)c(F)cc4C3)nc2cc1OCCC[N+](C)(CCO)CCO [Compound 16]
solubility [1]: 15.1 mg/mL
IC50 at 24 h [2]: > 100000 nM
IC50 at 24 h [3]: > 100000 nM
pIC50 [4]: 6.75
pIC50 [5]: 6.75
pIC50 [6]: 5.89
inhibition of generation of 37 kDa IgG degradation product by LasB [6]: complete inhibition
pKi [7]: 6.32

COc1cc2sc(CNC(=O)C3(CC(=O)O)Cc4ccccc4C3)nc2cc1OCCC[N+](C)(C)C [Compound 12]
solubility [1]: 17.7 mg/mL
IC50 at 24 h [2]: > 100000 nM
IC50 at 24 h [3]: > 100000 nM
pIC50 [4]: 6.74
pIC50 [5]: 6.67
pIC50 [6]: 5.59
inhibition of generation of 37 kDa IgG degradation product by LasB [6]: complete inhibition
pKi [7]: 6.15
